# Columns and labels:
# [1] = system: Staphylococcus aureus strain MN8; test: MIC and MBC assay, broth dilution with plate counts; type: cell-based; conditions: for minimum bactericidal concentration (MBC) / minimum inhibitory concentration (MIC): Staphylococcus Aureus MN8 strain, 24-hour incubation, Todd Hewitt broth, aerobic 37° C.; for activity compared with GML (log CFU/mL, FIGS. 1A and 1B): staphylococcus aureus MN8 cultured with various concentrations
# Protocol: For this experiment, all cultures were aerobic at 37° C. with 150 RPM gyrotary shaking. Stationary phase with this microbe is 1.0x1010 colony-forming units (CFUs)/ml. The next morning the culture was diluted to approximately 5x10^6/ml in 1 ml amounts of Todd Hewitt broth in 5 ml polystyrene test tubes. The tubes contained serial two-fold dilutions of glycerol monolaurate, SGML, or […]. The control tubes contained no GML or SGML and […] compounds. The compounds were tested in triplicate. […] The control tube contained the highest volume of ethanol that was used to deliver the compounds to each 1 ml test tube. […] Once plated, the plates were incubated aerobically for 24 hours at 37° C. Counts were made to determine CFUs/ml. The CFUs/ml were log-transformed and mean ± SD were determined. Using the standard MIC and MBC assay above with staphylococcus aureus strain […] and […] were tested with GML.
# TSST-1 = type: cell-based, Staphylococcus aureus
# Escherichia coli [2] = test: MIC and MBC test with E. coli; type: cell-based; conditions: for effectiveness compared with GML (FIG. 3): E. coli MIC and MBC test; for Minimum Inhibitory Concentration / Mininum Bactericidal Concentration: E. coli laboratory strain from a patient with urinary tract infection, same conditions as S. aureus MN8
# Protocol: The conditions for this test were the same as in the above example with S. aureus MN8. The E. coli strain was a laboratory strain from a patient with a confirmed urinary tract infection. The strain is maintained in the laboratory at -80° C.
# [3] = system: Lipase (glycerol ester hydrolase); test: Lipase (glycerol ester hydrolase) assay, esterase resistance; type: biochemical, Staphylococcus aureus; conditions: 500 ug/ml compound; lipase 25 ug/ml; 24 hours at 37° C.
# Protocol: Protocol for Lipase (glycerol ester hydrolase) assay: • 1. Two separate samples of lipase at 25 ug/ml were prepared. • 2. Microscope slides were made up with 500 ug/ml of GML, SGML, or S2ML compounds. • These slides contained 0.85% agarose (Difco) heat solubilized into PBS (0.005 M NaPO4 pH 7.2; 0.15MNaC1). • 3. The mixtures contained the compounds above their solubility limits, so they were vortexed, and 4.5 ml of the cloudy mixtures was spread onto microscope slides. • 4. The slides remained at room temperature for 1 hour to allow the agarose to solidify. • 5. The, 4 mm wells were punched into the agarose, twice per slide. • 6. 20 ul of the Lipase was added to each well. • 7. The slides were incubated for 24 hours at 37° C. • 8. The diameter squared was determined for each. This allows determination of hydrolysis of compound. • GML: 15 mm; 15 mm diameters (diameters squared=225 mm) • SGML: 12 mm; 13 mm diameters (diameters squared=144 mm and 169 mm for an average of 156.5 mm) • S2GML: 0 mm; 0 mm diameters (diameters squared=0) • 10. Diameter squared is used to the determination would be a straight line with a standard curve. • Set GML at 100% • 11. SGML is 70% as much as GML • 12. S2GML is 0% of GML
# Bacillus subtilis = test: MIC/MBC at 24 hours; type: cell-based; conditions: Time 0 1.1E+07 CFU/ml, 200 RPM shaking at 37° C.
# Protocol: Bacillus subtilis, an aerobic spore-former, was incubated with 200 RPM shaking at 37° C. The strain was a recent clinical isolate at the University of Iowa, and proves to develop resistance to standard […] agents.
# (§1) All solutions used in the MBC and MIC studies were prepared from a stock of 100 mg/ml of either GML, SGML or S2GML in absolute ethanol.
# [4] = system: Streptococcus pyogenes (Group A streptococcus) 594; test: MIC/MBC at 24 hours; type: cell-based; conditions: Streptococcus pyogenes GAS 594, Time 0 2.7E+06 CFU/ml, stationary at 37° C. in 5% CO2
# Protocol: Streptococcus pyogenes (Group A streptococcus) 594 is a standard scarlet fever strain that has been extensively published on. The strain was incubated stationary at 37° C. in 5% CO2.
# as §1
# Candida auris = test: MIC/MBC at 24 hours; type: cell-based; conditions: Time 0 4.5E+05 CFU/ml
# Protocol: Candida auris is a newly emerging yeast (fungus) that is causing skin and bloodstream infections in humans. It easily becomes resistant to anti-fungal agents, making development of novel therapeutics a necessity. This organism is related to Candida albicans and other Candida species. The MIC and MBC in the above table show very good activity of both the SGML and S2GML versus this organism.
# as §1
# S. aureus strains = test: Susceptibility of S. aureus strains to GML; type: cell-based, Staphylococcus aureus
# [5] = system: other Gram-positive bacteria and Gram-negative bacteria with an incomplete lipopolysaccharide; test: Killing of other bacteria by GML; type: cell-based; conditions: other Gram-positive bacteria and Gram-negative bacteria with lipo-oligosaccharide
# [6] = system: Gram-negative bacteria with an intact lipopolysaccharide, such as Escherichia coli; test: Killing of Gram-negative bacteria with intact lipopolysaccharide by GML; type: cell-based
# [7] = system: glycerol ester hydrolase (lipase); test: Lipase production by S. aureus in presence of GML; type: cell-based, Staphylococcus aureus; conditions: S. aureus strains
# Staphylococcus aureus = conditions: Gram Positive; Aerobe; 54 strains tested; cited from earlier work
# Streptococcus pyogenes = conditions: Gram Positive; Aerotolerant Anaerobe; 4 strains tested; cited from earlier work
# Streptococcus agalactiae = conditions: Gram Positive; Aerotolerant Anaerobe; 3 strains tested; cited from earlier work
# Group C Streptococcus = conditions: Gram Positive; Aerotolerant Anaerobe; 1 strain tested; cited from earlier work
# Group F Streptococcus = conditions: Gram Positive; Aerotolerant Anaerobe; 1 strain tested; cited from earlier work
# Group G Streptococcus = conditions: Gram Positive; Aerotolerant Anaerobe; 1 strain tested; cited from earlier work
# Streptococcus suis = conditions: Gram Positive; Aerotolerant Anaerobe; 1 strain tested; cited from earlier work
# Streptococcus sanguinis = conditions: Gram Positive; Aerotolerant Anaerobe; 1 strain tested; cited from earlier work
# [8] = system: Streptococcus pneumoniae Serotype III; conditions: Gram Positive; Aerotolerant Anaerobe; 2 strains tested; cited from earlier work
# Enterococcus faecalis = conditions: Gram Positive; Aerotolerant Anaerobe; 1 strain tested; cited from earlier work
# Listeria monocytogenes = conditions: Gram Positive; Aerobe; 1 strain tested; cited from earlier work
# [9] = system: Bacillus anthracis Sterne; conditions: Gram Positive; Aerobe; 1 strain tested; cited from earlier work
# Bacillus cereus = conditions: Gram Positive; Aerobe; 1 strain tested; cited from earlier work
# [10] = system: Peptostreptococcus species; conditions: Gram Positive; Anaerobe; 1 strain tested; cited from earlier work
# Clostridium perfringens = conditions: Gram Positive; Anaerobe; 1 strain tested; cited from earlier work
# Neisseria gonorrhoeae = conditions: Gram Negative; Aerobe; 1 strain tested; cited from earlier work
# [11] = system: Haemophilus influenza Non-typable; conditions: Gram Negative; Aerobe; 2 strains tested; cited from earlier work
# Gardnerella vaginalis = conditions: Gram Negative; Aerobe; 2 strains tested; cited from earlier work
# Campylobacter jejuni = conditions: Gram Negative; Aerobe; 1 strain tested; cited from earlier work
# [12] = system: Bordetella bronchiseptica; conditions: Gram Negative; Aerobe; 1 strain tested; cited from earlier work
# Pseudomonas aeruginosa = conditions: Gram Negative; Aerobe; 1 strain tested; cited from earlier work
# Burkholderia cenocepacia = conditions: Gram Negative; Aerobe; 1 strain tested; cited from earlier work
# Pasteurella multocida = conditions: Gram Negative; Aerobe; 1 strain tested; cited from earlier work
# [13] = system: Prevotella melaninogenica; conditions: Gram Negative; Anaerobe; 1 strain tested; cited from earlier work
# Bacteroides fragilis = conditions: Gram Negative; Anaerobe; 2 strains tested; cited from earlier work
# Fusobacterium species = conditions: Gram Negative; Anaerobe; 1 strain tested; cited from earlier work
# Escherichia coli [14] = conditions: Gram Negative; Aerobe; 2 strains tested; cited from earlier work
# Salmonella Minnesota = conditions: Gram Negative; Aerobe; 1 strain tested; cited from earlier work
# Enterobacter aerogenes = conditions: Gram Negative; Aerobe; 1 strain tested; cited from earlier work
# Proteus vulgaris = conditions: Gram Negative; Aerobe; 1 strain tested; cited from earlier work
# Shigella sonnei = conditions: Gram Negative; Aerobe; 1 strain tested; cited from earlier work
# Klebsiella pneumoniae = conditions: Gram Negative; Aerobe; 1 strain tested; cited from earlier work
# Mycobacterium phlei = conditions: Acid Fast; Aerobe; 1 strain tested; cited from earlier work
# [15] = system: Mycobacterium tuberculosis; conditions: Acid Fast; Aerobe; 1 strain tested; cited from earlier work
# Mycoplasma hominis = conditions: Cell Wall deficient; Aerobe; 1 strain tested; cited from earlier work
# [16] = system: Escherichia coli (e. coli); conditions: Welch et al., mBio 2020; cited from earlier work
compound,measurement,setting,value
"CCCCCCCCCCCC(=S)SCC(O)CO (stereo not drawn) [Example S2GML, glycerol dithionomonolaureate]",minimum bactericidal concentration (MBC),[1],63.5 µg/mL
same,minimum inhibitory concentration (MIC),[1],31.125 µg/mL
same,"activity compared with GML (log CFU/mL, FIGS. 1A and 1B)",[1],clearly has more activity
same,inhibition of TSST-1,TSST-1,< 4 µg/mL
same,effectiveness compared with GML (FIG. 3),Escherichia coli [2],performed similarly to GML
same,Minimum Inhibitory Concentration,Escherichia coli [2],500 µg/mL
same,Mininum Bactericidal Concentration,Escherichia coli [2],500 µg/mL
same,"hydrolysis as % of GML (diameter squared, GML set at 100%)",[3],0%
same,MIC/MBC,Bacillus subtilis,<1.0 µg/mL
same,MIC/MBC,[4],<0.1 µg/mL
same,MIC/MBC,Candida auris,1.0 µg/mL
"CCCCCCCCCCCC(=S)OCC(O)CO (stereo not drawn) [SGML, glycerol thionomonolaureate]",minimum bactericidal concentration (MBC),[1],125 µg/mL
same,minimum inhibitory concentration (MIC),[1],125 µg/mL
same,"activity compared with GML (log CFU/mL, FIGS. 1A and 1B)",[1],more active than GML
same,inhibition of TSST-1,TSST-1,8 µg/mL
same,effectiveness compared with GML (FIG. 3),Escherichia coli [2],more effective than GML
same,Minimum Inhibitory Concentration,Escherichia coli [2],250 µg/mL
same,Mininum Bactericidal Concentration,Escherichia coli [2],250 µg/mL
same,"hydrolysis as % of GML (diameter squared, GML set at 100%)",[3],70%
same,MIC/MBC,Bacillus subtilis,10 µg/mL
same,MIC/MBC,[4],0.1 µg/mL
same,MIC/MBC,Candida auris,10 µg/mL
"CCCCCCCCCCCC(=O)OCC(O)CO (stereo not drawn) [GML, glycerol monolaureate]",MBC,"[1]; Staphylococcus aureus, MN8, 24 h, read-out: minimum bactericidal concentration (MBC)",250 µg/mL
same,MIC,"[1]; Staphylococcus aureus, MN8, 24 h, read-out: minimum inhibitory concentration (MIC)",250 µg/mL
same,inhibition of TSST-1,TSST-1,16 µg/mL
same,Mininum Bactericidal Concentration,Escherichia coli [2],500 µg/mL
same,MIC,"Escherichia coli [2]; Escherichia coli, read-out: Minimum Inhibitory Concentration",500 µg/mL
same,MIC/MBC,Bacillus subtilis,50 µg/mL
same,MIC/MBC,[4],1.0 µg/mL
same,MIC/MBC,Candida auris,50 µg/mL
same,concentration to which all S. aureus strains tested remain susceptible,S. aureus strains; all strains of S. aureus tested,≤ 500 µg/mL
same,bactericidal concentration,S. aureus strains; most S. aureus strains,250 µg/mL
same,concentrations that kill,[5],25 to 50 µg/mL
same,concentration that kills,[6]; with accelerants: low pH and EDTA addition,25 to 50 µg/mL
same,susceptibility to GML,[6]; without accelerants,completely resistant
same,GML concentration at which lipase cannot be produced,[7],about 300 µg/ml
same,Average Bactericidal Concentration,Staphylococcus aureus,300 mg/mL
same,Average Bactericidal Concentration,Streptococcus pyogenes,30 mg/mL
same,Average Bactericidal Concentration,Streptococcus agalactiae,30 mg/mL
same,Average Bactericidal Concentration,Group C Streptococcus,30 mg/mL
same,Average Bactericidal Concentration,Group F Streptococcus,20 mg/mL
same,Average Bactericidal Concentration,Group G Streptococcus,50 mg/mL
same,Average Bactericidal Concentration,Streptococcus suis,50 mg/mL
same,Average Bactericidal Concentration,Streptococcus sanguinis,50 mg/mL
same,Average Bactericidal Concentration,[8],10 mg/mL
same,Average Bactericidal Concentration,Enterococcus faecalis,100 mg/mL
same,Average Bactericidal Concentration,Listeria monocytogenes,50 mg/mL
same,Average Bactericidal Concentration,[9],50 mg/mL
same,Average Bactericidal Concentration,Bacillus cereus,50 mg/mL
same,Average Bactericidal Concentration,[10],1 mg/mL
same,Average Bactericidal Concentration,Clostridium perfringens,1 mg/mL
same,Average Bactericidal Concentration,Neisseria gonorrhoeae,20 mg/mL
same,Average Bactericidal Concentration,[11],50 mg/mL
same,Average Bactericidal Concentration,Gardnerella vaginalis,10 mg/mL
same,Average Bactericidal Concentration,Campylobacter jejuni,1 mg/mL
same,Average Bactericidal Concentration,[12],1 mg/mL
same,Average Bactericidal Concentration,Pseudomonas aeruginosa,Not Susceptible
same,Average Bactericidal Concentration,Burkholderia cenocepacia,500 mg/mL
same,Average Bactericidal Concentration,Pasteurella multocida,500 mg/mL
same,Average Bactericidal Concentration,[13],50 mg/mL
same,Average Bactericidal Concentration,Bacteroides fragilis,50 mg/mL
same,Average Bactericidal Concentration,Fusobacterium species,50 mg/mL
same,Average Bactericidal Concentration,Escherichia coli [14],Not Susceptible
same,Average Bactericidal Concentration,Salmonella Minnesota,Not Susceptible
same,Average Bactericidal Concentration,Enterobacter aerogenes,Not Susceptible
same,Average Bactericidal Concentration,Proteus vulgaris,Not Susceptible
same,Average Bactericidal Concentration,Shigella sonnei,Not Susceptible
same,Average Bactericidal Concentration,Klebsiella pneumoniae,Not Susceptible
same,Average Bactericidal Concentration,Mycobacterium phlei,100 mg/mL
same,Average Bactericidal Concentration,[15],100 mg/mL
same,Average Bactericidal Concentration,Mycoplasma hominis,1 mg/mL
same,effectiveness against Escherichia coli,[16],not effective
